Source: ChEMBL document CHEMBL5257044, “Arylnaphthalene Lignans with Anti-SARS-CoV-2 and Antiproliferative Activities from the Underground Organs of Linum austriacum and Linum perenne” (J Nat Prod, 2023)

Tests used:
SARS-CoV-2 [1] = assay: Antiviral activity against SARS-COV2 EPI_ISL_1172022 infected in african green monkey Vero E6 cells assessed as inhibition of viral replication incubated for 48 hrs by RT-qPCR analysis; assay type: functional, organism-based; conditions: Severe acute respiratory syndrome coronavirus 2, EPI_ISL_1172022, Vero C1008, 48 h
PC-3 = assay: Cytotoxicity against human PC-3 cells incubated for 24 hrs by AlamarBlue staining based analysis; assay type: functional, cell-based; conditions: PC-3, 24 h
TE-1 = assay: Antiproliferative activity against human TE-1 cells measured after 2 days by CCK-8 method; assay type: functional, cell-based; conditions: TE-1, 48 h
A549 [2] = assay: Cytotoxicity against human A549 cells measured after 3 days by MTT assay; assay type: functional, cell-based; conditions: A549, 72 h
SARS-CoV-2 [3] = assay: Antiviral activity against SARS-COV2 EPI_ISL_1172022 infected in african green monkey Vero E6 cells assessed as log reduction in viable virus at 12.5 uM incubated for 48 hrs by RT-qPCR analysis; assay type: functional, Severe acute respiratory syndrome coronavirus 2
HT-29 = assay: Cytotoxicity against human HT-29 cells incubated for 24 hrs by AlamarBlue staining based analysis; assay type: functional, cell-based; conditions: HT-29, 24 h
A549 [4] = assay: Cytotoxicity against human A549 cells incubated for 24 hrs by MTS assay; assay type: functional, cell-based; conditions: A549, 24 h
EBC-1 = assay: Cytotoxicity against human EBC-1 cells incubated for 24 hrs by AlamarBlue staining based analysis; assay type: functional, cell-based; conditions: EBC-1, 24 h
ECa-109 cell line = assay: Antiproliferative activity against human Eca-109 cells measured after 2 days by CCK-8 method; assay type: functional, cell-based; conditions: ECa-109, 48 h
Calu-1 = assay: Cytotoxicity against human Calu-1 cells incubated for 24 hrs by AlamarBlue staining based analysis; assay type: functional, cell-based; conditions: Calu-1, 24 h
A549 [5] = assay: Cytotoxicity against human A549 cells incubated for 24 hrs by AlamarBlue staining based analysis; assay type: functional, cell-based; conditions: A549, 24 h
HepG2 = assay: Cytotoxicity against human HepG2 cells incubated for 24 hrs by AlamarBlue staining based analysis; assay type: functional, cell-based; conditions: HepG2, 24 h
A2058 = assay: Cytotoxicity against human A2058 cells incubated for 24 hrs by AlamarBlue staining based analysis; assay type: functional, cell-based; conditions: A2058, 24 h
NCI-H838 = assay: Cytotoxicity against human NCI-H838 cells incubated for 24 hrs by AlamarBlue staining based analysis; assay type: functional, cell-based; conditions: NCI-H838, 24 h
[6] = Cytotoxicity against African green monkey Vero E6 cells incubated for 48 hrs by CCK-8 assay; assay type: toxicity, cell-based, Vero C1008; conditions: African green monkey (Chlorocebus sabaeus)
[7] = Cytotoxicity against human U87 cells incubated for 24 hrs by AlamarBlue staining based analysis; assay type: functional, cell-based, U-87MG ATCC; conditions: U-87 MG
MONO-MAC-6 = assay: Cytotoxicity against human MONO-MAC-6 cells incubated for 24 hrs by AlamarBlue staining based analysis; assay type: functional, cell-based; conditions: MONO-MAC-6, 24 h
SARS-CoV-2 [8] = assay: Antiviral activity against SARS-COV2 infected in african green monkey Vero E6 cells assessed as inhibition of viral replication incubated for 48 hrs by plague assay; assay type: functional, organism-based; conditions: Severe acute respiratory syndrome coronavirus 2, Vero C1008, 48 h
RPMI-8226 = assay: Cytotoxicity against human RPMI-8226 cells assessed as reduction in cell viability measured after 72 hrs by MTT assay; assay type: functional, cell-based; conditions: RPMI-8226, 72 h
BGC-823 = assay: Cytotoxicity against human BGC-823 cells assessed as reduction in cell viability measured after 4 days by MTT colorimetric assay; assay type: functional, cell-based; conditions: BGC-823, 96 h

`CCN(CC)CCCC(C)Nc1ccnc2cc(Cl)ccc12` (configuration not stated) [CHLOROQUINE] showed an IC50 (SARS-CoV-2 [1]) of 50.2 µM.

In the case of `COc1cc2c(O)c3c(c(-c4ccc5c(c4)OCO5)c2cc1OC)C(=O)OC3` [DIPHYLLIN], the IC50 (PC-3) is reported as 3.8 µM, the IC50 (TE-1) is reported as 0.28 µM and the IC50 (A549 [2]) is reported as 24 µM. The “log(activity)” value (SARS-CoV-2 [3]) was over 3, the IC50 (HT-29) was 19.5 µM and the IC50 (A549 [4]) was 2.02 µM. It also gave an IC50 (EBC-1) of 14.8 µM, an IC50 (ECa-109 cell line) of 0.21 µM and an IC50 (SARS-CoV-2 [1]) of over 100 µM. For the same molecule, the IC50 (Calu-1) was 31.8 µM, the IC50 (A549 [5]) was 8.8 µM and the IC50 (HepG2) was 21.6 µM. The IC50 (A2058) was 2.6 µM, the IC50 (NCI-H838) was 16 µM and the IC50 at 48 h [6] was over 100 µM. It also gave an IC50 [7] of 26.1 µM, an IC50 (MONO-MAC-6) of 3.9 µM and an IC50 (SARS-CoV-2 [8]) of 1.92 µM.

With `COc1cc([C@@H]2c3cc4c(cc3[C@@H](O[C@@H]3O[C@@H]5CO[C@@H](C)O[C@H]5[C@H](O)[C@H]3O)[C@H]3COC(=O)[C@H]23)OCO4)cc(OC)c1O` [ETOPOSIDE] the IC50 (PC-3) was 8 µM, the IC50 (HT-29) was 18.5 µM and the IC50 (EBC-1) was 15.7 µM. The IC50 (Calu-1) was over 100 µM, the IC50 (A549 [5]) was over 100 µM and the IC50 (HepG2) was 20.9 µM. The IC50 (A2058) was 8.9 µM, the IC50 (NCI-H838) was over 100 µM and the IC50 [7] was 27 µM. The IC50 (MONO-MAC-6) was 2.2 µM.

`COc1cc2cc(COC(=O)CC(=O)O)c(C(=O)O)c(-c3ccc4c(c3)OCO4)c2cc1OC` showed an IC50 (PC-3) of 32.8 µM, an IC50 (HT-29) of over 100 µM and an IC50 (EBC-1) of 16 µM. The IC50 (SARS-CoV-2 [1]) was over 100 µM, the IC50 (Calu-1) was over 100 µM and the IC50 (A549 [5]) was over 100 µM. For the same molecule, the IC50 (HepG2) was over 100 µM, the IC50 (A2058) was 25.1 µM and the IC50 (NCI-H838) was over 100 µM. It also gave an IC50 [7] of over 100 µM and an IC50 (MONO-MAC-6) of 70.1 µM.

Work on `COc1cc2cc(COC(=O)CC(=O)O)c(C(=O)O[C@@H]3O[C@H](COC(=O)CC(C)(O)CC(=O)O)[C@@H](O)[C@H](O)[C@H]3O)c(-c3ccc4c(c3)OCO4)c2cc1OC` (some centres not stated) yielded an IC50 (PC-3) of 3.2 µM, an IC50 (HT-29) of 19.9 µM and an IC50 (EBC-1) of 19.2 µM. The IC50 (SARS-CoV-2 [1]) was over 100 µM, the IC50 (Calu-1) was 67 µM and the IC50 (A549 [5]) was 26.3 µM. It also gave an IC50 (HepG2) of over 100 µM, an IC50 (A2058) of 2.4 µM and an IC50 (NCI-H838) of 16 µM. The IC50 [7] was over 100 µM and the IC50 (MONO-MAC-6) was 7.1 µM.

For `COc1cc2cc3c(c(-c4ccc5c(c4)OCO5)c2cc1OC)C(=O)OC3`, the IC50 (RPMI-8226) was 0.17 µM, the IC50 (PC-3) was 5.7 µM and the “log(activity)” value (SARS-CoV-2 [3]) was over 3. It also gave an IC50 (HT-29) of 5.9 µM, an IC50 (EBC-1) of 63.2 µM and an IC50 (SARS-CoV-2 [1]) of over 100 µM. It also gave an IC50 (Calu-1) of 18.5 µM, an IC50 (A549 [5]) of 11.4 µM and an IC50 (HepG2) of 16.8 µM. It also gave an IC50 (A2058) of 8.9 µM, an IC50 (BGC-823) of 0.18 µM and an IC50 (NCI-H838) of 11 µM. The IC50 [7] was 21.6 µM and the IC50 (MONO-MAC-6) was 2.5 µM.

`CC(=O)Oc1ccccc1C(=O)Nc1ncc([N+](=O)[O-])s1` [NITAZOXANIDE] showed an IC50 (SARS-CoV-2 [1]) of 82.7 µM.

Molecule `CC(C)C(=O)OC[C@H]1O[C@@H](n2cc/c(=N\O)[nH]c2=O)[C@H](O)[C@@H]1O` [MOLNUPIRAVIR] has an IC50 (SARS-CoV-2 [1]) of over 100 µM.
